Data: patent EP4467141A1, “PYRAZOLO-QUINOLINES AS SELECTIVE INHIBITORS OF GENOTOXIC STRESS-INDUCED IKK/NF- KB PATHWAYS FOR CANCER THERAPY” (Max-Delbrück-Centrum für Molekulare Medizin in der …, priority 2023, dated 2024)

How the values were obtained:
Assay in all cases: Kinase panel study
Assay type in all cases: biochemical
Details in all cases: read-out: Percentage of inhibition; for inhibition at 1 µM: 1000nM; for inhibition at 10 µM: 10000nM
[1] = biological target: T1, ACVR1B (ALK4) (Homo sapiens, UniProt P36896)
T1 construct: purchased Thermo Fisher Scientific
T1 sequence (P36896 24-505): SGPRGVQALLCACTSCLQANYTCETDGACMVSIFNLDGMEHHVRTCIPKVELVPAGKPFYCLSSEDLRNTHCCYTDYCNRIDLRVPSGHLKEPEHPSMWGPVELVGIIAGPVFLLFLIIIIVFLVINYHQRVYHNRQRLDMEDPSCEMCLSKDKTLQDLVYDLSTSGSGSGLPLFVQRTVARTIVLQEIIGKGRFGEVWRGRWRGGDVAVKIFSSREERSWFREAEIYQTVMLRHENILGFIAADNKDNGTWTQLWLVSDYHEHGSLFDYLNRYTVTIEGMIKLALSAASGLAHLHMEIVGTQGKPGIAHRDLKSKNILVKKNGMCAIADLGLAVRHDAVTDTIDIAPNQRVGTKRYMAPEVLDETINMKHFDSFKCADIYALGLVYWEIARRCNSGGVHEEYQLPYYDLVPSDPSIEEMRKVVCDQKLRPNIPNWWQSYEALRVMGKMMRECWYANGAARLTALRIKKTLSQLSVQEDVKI
In short: (§1)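 Lead compounds and derivatives were profiled by ZLyte or Adapta in vitro kinase assays. Each value reports inhibition percentage at one of two concentrations, 1 µM or 10 µM.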

[2] = biological target: T2, AMPK (A1/B2/G3) (Homo sapiens, UniProt Q13131)
T2 construct: purchased Thermo Fisher Scientific
T2 sequence (Q13131 whole entry): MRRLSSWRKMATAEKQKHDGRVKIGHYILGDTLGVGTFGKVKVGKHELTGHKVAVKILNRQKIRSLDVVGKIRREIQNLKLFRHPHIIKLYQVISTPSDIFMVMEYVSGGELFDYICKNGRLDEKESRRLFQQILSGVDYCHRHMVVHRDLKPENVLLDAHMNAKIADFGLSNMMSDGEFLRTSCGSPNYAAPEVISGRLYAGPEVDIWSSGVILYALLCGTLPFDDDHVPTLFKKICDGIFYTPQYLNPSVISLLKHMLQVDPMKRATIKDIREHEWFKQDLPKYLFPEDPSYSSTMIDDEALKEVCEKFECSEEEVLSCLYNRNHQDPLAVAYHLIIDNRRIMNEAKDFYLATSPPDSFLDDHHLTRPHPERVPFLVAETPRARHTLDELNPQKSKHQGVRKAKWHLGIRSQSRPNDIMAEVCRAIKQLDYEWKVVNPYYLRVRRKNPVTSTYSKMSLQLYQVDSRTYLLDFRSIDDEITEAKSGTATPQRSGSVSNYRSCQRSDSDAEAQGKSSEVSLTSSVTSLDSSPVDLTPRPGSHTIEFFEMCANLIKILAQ
T2 sequence (O43741 whole entry partner): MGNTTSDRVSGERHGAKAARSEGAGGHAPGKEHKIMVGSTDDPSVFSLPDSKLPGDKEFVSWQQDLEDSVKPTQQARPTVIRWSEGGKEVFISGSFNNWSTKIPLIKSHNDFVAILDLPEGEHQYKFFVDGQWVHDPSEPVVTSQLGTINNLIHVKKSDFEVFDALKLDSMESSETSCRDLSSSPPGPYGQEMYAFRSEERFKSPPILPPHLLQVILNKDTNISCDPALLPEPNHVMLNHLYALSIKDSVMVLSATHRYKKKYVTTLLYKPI
T2 sequence (Q9UGI9 whole entry partner): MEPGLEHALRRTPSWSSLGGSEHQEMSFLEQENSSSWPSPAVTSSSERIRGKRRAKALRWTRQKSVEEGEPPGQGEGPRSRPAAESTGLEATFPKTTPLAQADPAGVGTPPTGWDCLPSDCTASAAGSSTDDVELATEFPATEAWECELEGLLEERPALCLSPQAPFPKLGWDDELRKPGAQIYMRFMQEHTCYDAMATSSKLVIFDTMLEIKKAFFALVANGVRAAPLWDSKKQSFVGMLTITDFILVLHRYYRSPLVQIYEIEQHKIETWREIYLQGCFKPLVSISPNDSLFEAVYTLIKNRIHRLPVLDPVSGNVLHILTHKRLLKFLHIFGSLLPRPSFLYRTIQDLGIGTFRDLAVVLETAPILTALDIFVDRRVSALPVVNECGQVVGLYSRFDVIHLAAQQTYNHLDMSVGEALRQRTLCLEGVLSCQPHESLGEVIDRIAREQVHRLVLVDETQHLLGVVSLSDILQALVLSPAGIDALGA
In short: as §1

[3] = biological target: T3, CDK4/cyclin D1 (Homo sapiens, UniProt P11802)
T3 construct: purchased Thermo Fisher Scientific
T3 sequence (P11802 whole entry): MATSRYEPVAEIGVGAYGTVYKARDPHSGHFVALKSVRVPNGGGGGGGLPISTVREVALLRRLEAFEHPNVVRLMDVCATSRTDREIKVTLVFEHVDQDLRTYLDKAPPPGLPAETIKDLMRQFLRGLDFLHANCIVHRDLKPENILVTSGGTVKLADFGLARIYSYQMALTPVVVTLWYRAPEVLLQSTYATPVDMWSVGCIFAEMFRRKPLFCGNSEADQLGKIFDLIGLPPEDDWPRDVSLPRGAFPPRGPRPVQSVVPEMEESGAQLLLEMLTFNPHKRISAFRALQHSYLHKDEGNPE
T3 sequence (P24385 whole entry partner): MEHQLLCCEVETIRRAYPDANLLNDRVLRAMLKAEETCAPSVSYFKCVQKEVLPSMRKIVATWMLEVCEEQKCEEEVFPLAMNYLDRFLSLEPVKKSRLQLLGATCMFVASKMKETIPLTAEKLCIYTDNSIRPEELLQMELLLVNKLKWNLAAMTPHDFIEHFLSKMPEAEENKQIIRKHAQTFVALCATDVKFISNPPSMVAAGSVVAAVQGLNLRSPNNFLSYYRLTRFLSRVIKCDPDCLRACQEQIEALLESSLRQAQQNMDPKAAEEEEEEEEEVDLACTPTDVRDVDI
In short: as §1

[4] = biological target: T4, CDK4/cyclin D3 (Homo sapiens, UniProt P11802)
T4 construct: purchased Thermo Fisher Scientific
T4 sequence (P11802 whole entry): as the sequence (P11802 whole entry) above
T4 sequence (P30281 whole entry partner): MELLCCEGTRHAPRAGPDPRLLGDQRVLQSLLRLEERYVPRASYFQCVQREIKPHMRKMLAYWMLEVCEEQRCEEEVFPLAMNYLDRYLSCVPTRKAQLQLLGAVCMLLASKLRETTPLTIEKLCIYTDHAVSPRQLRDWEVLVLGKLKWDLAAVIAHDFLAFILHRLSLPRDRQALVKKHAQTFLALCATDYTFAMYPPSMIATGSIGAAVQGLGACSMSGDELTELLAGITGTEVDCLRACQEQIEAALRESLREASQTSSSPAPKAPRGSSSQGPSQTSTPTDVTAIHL
In short: as §1

[5] = biological target: T5, PLK2 (Homo sapiens, UniProt Q9NYY3)
T5 construct: purchased Thermo Fisher Scientific
T5 sequence (Q9NYY3 whole entry): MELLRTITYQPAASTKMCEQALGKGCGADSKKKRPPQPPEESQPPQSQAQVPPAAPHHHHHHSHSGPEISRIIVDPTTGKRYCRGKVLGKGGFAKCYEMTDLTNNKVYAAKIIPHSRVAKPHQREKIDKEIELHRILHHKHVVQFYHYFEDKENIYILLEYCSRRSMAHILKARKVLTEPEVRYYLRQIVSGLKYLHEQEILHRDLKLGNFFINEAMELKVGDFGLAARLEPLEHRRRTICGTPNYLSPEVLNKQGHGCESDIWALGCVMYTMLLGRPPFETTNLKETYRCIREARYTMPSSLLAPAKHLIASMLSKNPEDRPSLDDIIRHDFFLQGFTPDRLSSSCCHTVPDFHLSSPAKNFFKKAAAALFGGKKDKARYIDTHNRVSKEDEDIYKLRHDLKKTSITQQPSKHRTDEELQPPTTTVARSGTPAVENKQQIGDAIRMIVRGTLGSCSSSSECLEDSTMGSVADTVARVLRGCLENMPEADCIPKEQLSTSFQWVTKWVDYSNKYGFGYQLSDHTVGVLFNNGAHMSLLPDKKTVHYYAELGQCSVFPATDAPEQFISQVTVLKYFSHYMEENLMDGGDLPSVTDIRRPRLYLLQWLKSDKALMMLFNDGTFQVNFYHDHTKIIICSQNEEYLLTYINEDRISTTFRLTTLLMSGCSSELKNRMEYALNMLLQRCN
In short: as §1

[6] = biological target: T6, PRKCD (PKC delta) (Homo sapiens, UniProt Q05655)
T6 construct: purchased Thermo Fisher Scientific
T6 sequence (Q05655 whole entry): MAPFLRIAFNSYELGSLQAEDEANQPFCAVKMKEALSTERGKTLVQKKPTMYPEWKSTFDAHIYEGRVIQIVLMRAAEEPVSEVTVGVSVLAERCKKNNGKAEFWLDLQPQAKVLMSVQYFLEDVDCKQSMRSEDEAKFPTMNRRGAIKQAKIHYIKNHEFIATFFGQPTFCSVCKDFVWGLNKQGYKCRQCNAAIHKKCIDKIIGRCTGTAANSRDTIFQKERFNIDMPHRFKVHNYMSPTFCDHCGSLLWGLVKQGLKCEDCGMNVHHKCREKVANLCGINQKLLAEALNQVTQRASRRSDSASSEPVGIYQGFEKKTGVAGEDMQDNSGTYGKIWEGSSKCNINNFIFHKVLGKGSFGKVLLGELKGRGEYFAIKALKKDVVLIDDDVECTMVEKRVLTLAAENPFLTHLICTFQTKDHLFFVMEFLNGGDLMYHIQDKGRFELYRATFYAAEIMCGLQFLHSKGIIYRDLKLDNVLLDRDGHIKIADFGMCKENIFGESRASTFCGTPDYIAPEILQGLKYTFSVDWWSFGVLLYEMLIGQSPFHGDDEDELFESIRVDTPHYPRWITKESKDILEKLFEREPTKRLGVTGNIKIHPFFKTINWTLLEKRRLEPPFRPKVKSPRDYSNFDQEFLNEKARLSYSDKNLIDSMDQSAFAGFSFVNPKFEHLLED
In short: as §1

[7] = biological target: T7, PRKD1 (PKC mu) (Homo sapiens, UniProt Q15139)
T7 construct: purchased Thermo Fisher Scientific
T7 sequence (Q15139 1-912): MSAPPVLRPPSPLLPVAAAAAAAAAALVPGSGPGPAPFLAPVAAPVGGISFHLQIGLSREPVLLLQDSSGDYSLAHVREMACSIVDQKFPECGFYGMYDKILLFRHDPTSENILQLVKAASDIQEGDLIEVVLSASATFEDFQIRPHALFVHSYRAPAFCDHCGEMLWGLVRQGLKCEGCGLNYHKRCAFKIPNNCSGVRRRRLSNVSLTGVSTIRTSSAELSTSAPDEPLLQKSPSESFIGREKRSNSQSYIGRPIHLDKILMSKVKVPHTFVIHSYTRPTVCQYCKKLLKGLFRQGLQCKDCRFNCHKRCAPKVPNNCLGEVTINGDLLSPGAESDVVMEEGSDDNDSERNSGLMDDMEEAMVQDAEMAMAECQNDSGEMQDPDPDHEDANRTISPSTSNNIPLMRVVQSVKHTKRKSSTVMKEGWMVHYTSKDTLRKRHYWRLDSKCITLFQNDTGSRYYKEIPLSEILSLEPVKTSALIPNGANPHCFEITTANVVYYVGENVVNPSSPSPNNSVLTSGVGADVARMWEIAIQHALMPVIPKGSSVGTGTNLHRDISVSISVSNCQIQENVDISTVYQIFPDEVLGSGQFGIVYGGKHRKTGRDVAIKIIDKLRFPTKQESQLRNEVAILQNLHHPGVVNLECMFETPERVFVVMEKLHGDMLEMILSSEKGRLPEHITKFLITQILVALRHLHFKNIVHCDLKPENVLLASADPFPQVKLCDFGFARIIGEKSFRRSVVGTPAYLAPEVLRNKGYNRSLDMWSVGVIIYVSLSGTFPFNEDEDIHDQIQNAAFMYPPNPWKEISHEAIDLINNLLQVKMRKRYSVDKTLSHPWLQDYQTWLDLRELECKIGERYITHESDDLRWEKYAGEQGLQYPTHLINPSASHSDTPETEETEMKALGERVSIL
In short: as §1

[8] = biological target: T8, RPS6KA5 (MSK1) (Homo sapiens, UniProt O75582)
T8 construct: purchased Thermo Fisher Scientific
T8 sequence (O75582 whole entry): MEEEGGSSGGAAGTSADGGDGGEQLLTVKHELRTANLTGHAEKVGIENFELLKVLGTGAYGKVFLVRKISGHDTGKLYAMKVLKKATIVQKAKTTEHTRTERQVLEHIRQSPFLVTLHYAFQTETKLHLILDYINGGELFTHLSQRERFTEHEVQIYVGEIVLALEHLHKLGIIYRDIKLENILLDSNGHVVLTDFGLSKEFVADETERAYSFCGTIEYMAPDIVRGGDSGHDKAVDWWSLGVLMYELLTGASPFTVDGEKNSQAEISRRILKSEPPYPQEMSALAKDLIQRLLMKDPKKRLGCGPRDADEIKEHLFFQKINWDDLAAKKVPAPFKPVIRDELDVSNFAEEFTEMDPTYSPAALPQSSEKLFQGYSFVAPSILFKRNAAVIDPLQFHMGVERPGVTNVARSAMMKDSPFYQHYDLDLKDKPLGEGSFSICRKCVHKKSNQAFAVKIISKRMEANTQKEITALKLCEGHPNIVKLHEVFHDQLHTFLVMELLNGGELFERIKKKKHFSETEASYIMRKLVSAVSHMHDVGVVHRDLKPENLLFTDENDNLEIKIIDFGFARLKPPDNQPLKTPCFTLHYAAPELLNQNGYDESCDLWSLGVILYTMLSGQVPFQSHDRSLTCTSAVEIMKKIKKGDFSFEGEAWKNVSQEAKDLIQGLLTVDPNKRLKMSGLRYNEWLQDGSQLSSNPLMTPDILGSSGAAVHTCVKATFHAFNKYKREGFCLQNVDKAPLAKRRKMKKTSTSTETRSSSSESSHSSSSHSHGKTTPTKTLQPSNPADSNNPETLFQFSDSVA
In short: as §1

| SMILES | inhibition at 1 µM [1] [%] | inhibition at 10 µM [1] [%] | inhibition at 1 µM [2] [%] | inhibition at 10 µM [2] [%] | inhibition at 1 µM [3] [%] | inhibition at 10 µM [3] [%] | inhibition at 1 µM [4] [%] | inhibition at 10 µM [4] [%] | inhibition at 1 µM [5] [%] | inhibition at 10 µM [5] [%] | inhibition at 1 µM [6] [%] | inhibition at 10 µM [6] [%] | inhibition at 1 µM [7] [%] | inhibition at 10 µM [7] [%] | inhibition at 1 µM [8] [%] | inhibition at 10 µM [8] [%] |
| --- | --- | --- | --- | --- | --- | --- | --- | --- | --- | --- | --- | --- | --- | --- | --- | --- |
| COc1ccc2c(c1OC)c(=O)n1c3ccc(O)cc3c3ccnc2c31 [MW01, 5-Hydroxy-10,11-dimethoxy-9H-benzo[c]indolo[3,2,1-ij][1,5]naphthyridin-9-one] | -9 | -3 | 3 | 19 | -8 | -4 | -2 | -6 | -1 | -2 | 6 | 17 | 28 | 49 | 5 | 25 |
| COc1ccc2cc3c(N)nn(C(=O)c4cccc(N(C)C)c4)c3nc2c1 [MW05, (3-Amino-7-methoxypyrazolo[3,4-b]quinolin-1-yl)-[3-(dimethylamino)phenyl]methanone] | 1 | -8 | 0 | -6 | -3 | -1 | -6 | -8 | 3 | -2 | 14 | 0 | 5 | 9 | 2 | -14 |
